From patent US8637499B2, “Benzoxazepines as inhibitors of PI3K/mTOR and methods of their use and manufacture” (Exelixis, Inc., priority 2009, dated 2014)

Columns and labels:
mTORC1 (mTOR/GbL/Raptor) = mTORC1 (mTOR/GbL/Raptor) (Homo sapiens, UniProt P42345); assay: mTOR/GbL/Raptor (mTORC1) ELISA Assay; format: biochemical; conditions: 0.2 nM mTORC1, 10 μM ATP, 50 nM NHis-tagged 4E-BP1; phosphorylation of 4E-BP1; read-out: IC50
Experimental: mTOR/GbL/Raptor (mTORC1) ELISA Assay
The measurement of mTORC1 enzyme activity was performed in an ELISA assay format following the phosphorylation of 4E-BP1 protein. All experiments were performed in the 384-well format. Generally, 0.5 μL DMSO containing varying concentrations of the test compound was mixed with 15 μL enzyme solution. Kinase reactions were initiated with the addition of 15 μL of substrates-containing solution. The assay conditions were as follows; 0.2 nM mTORC1, 10 μM ATP and 50 nM NHis-tagged 4E-BP1 in 20 mM Hepes, pH 7.2, 1 mM DTT, 50 mM NaCl, 10 mM MnCl2, 0.02 mg/mL BSA, 0.01% CHAPS, 50 mM β-glycerophosphate. Following an incubation of 120 minutes at ambient temperature, 20 μL of the reaction volume was transferred to a Ni-Chelate-coated 384-well plate. The binding step of the 4E-BP1 protein proceeded for 60 minutes, followed by washing 4 times each with 50 μL of Tris-buffered saline solution (TBS). Anti-phospho-4E-BP1 rabbit-IgG (20 μL, 1:5000) in 5% BSA-TBST (0.2% Tween-20 in TBS) was added and further incubated for 60 minutes. Incubation with a secondary HRP-tagged anti-IgG was similarly performed after washing off the primary antibody (4 washes of 50 μL). Following the final wash step with TBST, 20 μL of SuperSignal ELISA Femto (Pierce Biotechnology) was added and the luminescence measured using an EnVision plate reader.

PI3Kα = PI3Kα (Homo sapiens, UniProt P42336); assay: PI3K Biochemical Assays (ATP consumption, luciferase-luciferin chemiluminescence); conditions: PI3Kα 1.5 nM, ATP 1 μM, PIP2 10 μM; percent of ATP consumed
Experimental: PI3Kα activity is measured as the percent of ATP consumed following the kinase reaction using luciferase-luciferin-coupled chemiluminescence. Reactions were conducted in 384-well white, medium binding microtiter plates (Greiner). Kinase reactions were initiated by combining test compounds, ATP, substrate (PIP2), and kinase in a 20 μL volume in a buffer solution. The standard PI3Kalpha assay buffer is composed 50 mM Tris, pH 7.5, 1 mM EGTA, 10 mM MgCl2, 1 mM DTT and 0.03% CHAPS. The standard assay concentrations for enzyme, ATP, and substrate are 1.5 nM, 1 μM, and 10 μM, respectively. The reaction mixture was incubated at ambient temperature for approximately 2 h. Following the kinase reaction, a 10 μL aliquot of luciferase-luciferin mix (Promega Kinase-Glo) was added and the chemiluminescence signal measured using a Victor2 plate reader (Perkin Elmer). Total ATP consumption was limited to 40-60% and IC50 values of control compounds correlate well with literature references. Substituting PI3Kα with PI3KIβ, […], or […], the inhibitory activity of the compounds for the other isoforms of I3K were measured.

Sequence of PI3Kα (P42336 whole entry): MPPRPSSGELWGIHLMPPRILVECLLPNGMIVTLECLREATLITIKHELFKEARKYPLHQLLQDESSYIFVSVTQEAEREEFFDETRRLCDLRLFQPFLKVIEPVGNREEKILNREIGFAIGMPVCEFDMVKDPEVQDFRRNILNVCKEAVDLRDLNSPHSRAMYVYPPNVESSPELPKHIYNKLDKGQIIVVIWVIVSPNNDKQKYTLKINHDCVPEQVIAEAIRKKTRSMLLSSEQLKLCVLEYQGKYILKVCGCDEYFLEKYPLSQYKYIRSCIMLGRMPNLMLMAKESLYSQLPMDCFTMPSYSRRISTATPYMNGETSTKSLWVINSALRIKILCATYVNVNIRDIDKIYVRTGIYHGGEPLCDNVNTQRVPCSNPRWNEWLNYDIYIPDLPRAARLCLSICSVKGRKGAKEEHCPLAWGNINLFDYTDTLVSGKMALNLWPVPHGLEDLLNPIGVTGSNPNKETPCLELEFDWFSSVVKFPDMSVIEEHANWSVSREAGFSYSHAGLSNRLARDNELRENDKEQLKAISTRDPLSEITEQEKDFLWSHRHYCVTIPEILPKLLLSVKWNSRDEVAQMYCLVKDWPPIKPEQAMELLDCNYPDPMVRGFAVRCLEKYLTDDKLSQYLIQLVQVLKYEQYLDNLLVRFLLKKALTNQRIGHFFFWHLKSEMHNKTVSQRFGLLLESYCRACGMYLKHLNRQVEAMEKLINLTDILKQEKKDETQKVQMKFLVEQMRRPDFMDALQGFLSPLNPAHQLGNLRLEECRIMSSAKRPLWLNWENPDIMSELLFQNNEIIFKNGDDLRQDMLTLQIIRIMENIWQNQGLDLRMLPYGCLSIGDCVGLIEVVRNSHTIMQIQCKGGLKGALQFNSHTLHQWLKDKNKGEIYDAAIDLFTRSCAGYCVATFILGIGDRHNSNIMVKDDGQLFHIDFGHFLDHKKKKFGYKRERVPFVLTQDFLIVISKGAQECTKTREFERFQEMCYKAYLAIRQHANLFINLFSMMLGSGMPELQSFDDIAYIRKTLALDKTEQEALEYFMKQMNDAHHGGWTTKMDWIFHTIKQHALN
Sequence of PI3Kα (P27986 whole entry partner): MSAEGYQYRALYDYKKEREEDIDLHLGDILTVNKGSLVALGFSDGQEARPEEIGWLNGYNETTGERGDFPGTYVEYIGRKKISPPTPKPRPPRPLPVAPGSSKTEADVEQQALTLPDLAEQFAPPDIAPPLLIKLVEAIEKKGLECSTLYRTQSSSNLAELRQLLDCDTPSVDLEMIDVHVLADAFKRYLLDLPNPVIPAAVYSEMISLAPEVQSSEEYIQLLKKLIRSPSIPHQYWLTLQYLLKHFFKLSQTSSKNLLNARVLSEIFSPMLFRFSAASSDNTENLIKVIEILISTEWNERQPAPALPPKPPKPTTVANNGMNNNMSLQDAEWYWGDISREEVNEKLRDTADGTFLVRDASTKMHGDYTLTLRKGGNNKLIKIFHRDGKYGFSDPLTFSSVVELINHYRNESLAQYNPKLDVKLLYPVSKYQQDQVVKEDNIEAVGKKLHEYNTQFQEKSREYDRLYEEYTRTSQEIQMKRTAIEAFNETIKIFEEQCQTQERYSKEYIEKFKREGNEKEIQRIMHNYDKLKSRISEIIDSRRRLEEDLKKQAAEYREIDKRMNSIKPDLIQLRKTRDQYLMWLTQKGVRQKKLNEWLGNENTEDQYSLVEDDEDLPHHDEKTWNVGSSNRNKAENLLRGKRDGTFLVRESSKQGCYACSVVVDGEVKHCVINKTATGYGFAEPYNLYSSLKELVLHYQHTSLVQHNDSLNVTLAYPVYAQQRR

Compound: O=C1CCN(C(=O)N2CCOc3ccc(-c4ccc(-c5ncc[nH]5)cc4)cc3C2)C(c2ccc(F)c(F)c2)C1 (stereo not shown) [Compound 53, 2-(3,4-difluorophenyl)-1-({7-[4-(1H-imidazol-2-yl)phenyl]-2,3-dihydro-1,4-benzoxazepin-4(5H)-yl}carbonyl)piperidin-4-one]
- IC50 (mTORC1 (mTOR/GbL/Raptor)): ≤ 50 nM
- IC50 (PI3Kα): ≤ 75 nM

Compound: Cc1nc2ccc(-c3ccc4c(c3)CN(C(=O)N3CCC(c5noc(C)n5)CC3)CCO4)cc2[nH]1 [Compound 162, 7-(2-methyl-1H-benzimidazol-6-yl)-4-{[4-(5-methyl-1,2,4-oxadiazol-3-yl)piperidin-1-yl]carbonyl}-2,3,4,5-tetrahydro-1,4-benzoxazepine]
- IC50 (mTORC1 (mTOR/GbL/Raptor)): 250 to 700 nM
- IC50 (PI3Kα): 1000 to 3000 nM

Compound: COC(=O)Nc1nc2ncc(-c3ccc4c(c3)CN(C(=O)N3CCC(O)(CF)CC3)CCO4)cc2[nH]1 [Compound 38, methyl [6-(4-{[4-(fluoromethyl)-4-hydroxypiperidin-1-yl]carbonyl}-2,3,4,5-tetrahydro-1,4-benzoxazepin-7-yl)-1H-imidazo[4,5-b]pyridin-2-yl]carbamate]
- IC50 (mTORC1 (mTOR/GbL/Raptor)): 50 to 250 nM
- IC50 (PI3Kα): 75 to 200 nM

Compound: O=C(N1CCC(C(F)F)CC1)N1CCOc2ccc(-c3ccc(-c4ncc[nH]4)cc3)cc2C1 [Compound 62, 4-{[4-(difluoromethyl)piperidin-1-yl]carbonyl}-7-[4-(1H-imidazol-2-yl)phenyl]-2,3,4,5-tetrahydro-1,4-benzoxazepine]
- IC50 (mTORC1 (mTOR/GbL/Raptor)): ≤ 50 nM
- IC50 (PI3Kα): 75 to 200 nM

Compound: Nc1nc2ncc(-c3ccc4c(c3)CN(C(=O)N3CCC(C(F)F)CC3)CCO4)cc2[nH]1 [Compound 43, 6-(4-{[4-(difluoromethyl)piperidin-1-yl]carbonyl}-2,3,4,5-tetrahydro-1,4-benzoxazepin-7-yl)-1H-imidazo[4,5-b]pyridin-2-amine]
- IC50 (mTORC1 (mTOR/GbL/Raptor)): ≤ 50 nM
- IC50 (PI3Kα): 75 to 200 nM

Compound: Cc1nc2ccc(-c3ccc4c(c3)CN(C(=O)N3CCC(C)(C(N)=O)CC3)CCO4)cc2[nH]1 [Compound 135, 4-methyl-1-{[7-(2-methyl-1H-benzimidazol-6-yl)-2,3-dihydro-1,4-benzoxazepin-4(5H)-yl]carbonyl}piperidine-4-carboxamide]
- IC50 (mTORC1 (mTOR/GbL/Raptor)): 50 to 250 nM
- IC50 (PI3Kα): 1000 to 3000 nM

Compound: Cc1nc2ccc(-c3ccc4c(c3)CN(C(=O)N3CCC(=O)CC3c3cccc(F)c3)CCO4)cc2[nH]1 (stereo not shown) [Compound 125, 2-(3-fluorophenyl)-1-{[7-(2-methyl-1H-benzimidazol-6-yl)-2,3-dihydro-1,4-benzoxazepin-4(5H)-yl]carbonyl}piperidin-4-one]
- IC50 (mTORC1 (mTOR/GbL/Raptor)): ≤ 50 nM
- IC50 (PI3Kα): 75 to 200 nM

Compound: Cc1nc2ccc(-c3ccc4c(c3)CN(C(=O)N3CCCCC3c3cc(F)cc(Cl)c3)CCO4)cc2[nH]1 (stereo not shown) [Compound 116, 4-{[2-(3-chloro-5-fluorophenyl)piperidin-1-yl]carbonyl}-7-(2-methyl-1H-benzimidazol-6-yl)-2,3,4,5-tetrahydro-1,4-benzoxazepine]
- IC50 (mTORC1 (mTOR/GbL/Raptor)): ≤ 50 nM
- IC50 (PI3Kα): 75 to 200 nM

Compound: Cc1nc2ccc(-c3ccc4c(c3)CN(C(=O)N3CCCCC3c3cccc(Cl)c3)CCO4)cc2[nH]1 (stereo not shown) [Compound 124, 4-{[2-(3-chlorophenyl)piperidin-1-yl]carbonyl}-7-(2-methyl-1H-benzimidazol-6-yl)-2,3,4,5-tetrahydro-1,4-benzoxazepine]
- IC50 (mTORC1 (mTOR/GbL/Raptor)): ≤ 50 nM
- IC50 (PI3Kα): 75 to 200 nM

Compound: O=C1CCN(C(=O)N2CCOc3ccc(-c4ccc(-c5ncc[nH]5)cc4)cc3C2)[C@H](c2ccc(F)cc2)C1 [Compound 57, (2S)-2-(4-fluorophenyl)-1-({7-[4-(1H-imidazol-2-yl)phenyl]-2,3-dihydro-1,4-benzoxazepin-4(5H)-yl}carbonyl)piperidin-4-one]
- IC50 (mTORC1 (mTOR/GbL/Raptor)): ≤ 50 nM
- IC50 (PI3Kα): ≤ 75 nM

Compound: COC(=O)Nc1nc2ccc(-c3ccc4c(c3)CN(C(=O)N3CCC(C)CC3)CCO4)cc2[nH]1 [Compound 2, methyl (6-{4-[(4-methylpiperidin-1-yl)carbonyl]-2,3,4,5-tetrahydro-1,4-benzoxazepin-7-yl}-1H-benzimidazol-2-yl)carbamate]
- IC50 (mTORC1 (mTOR/GbL/Raptor)): 50 to 250 nM
- IC50 (PI3Kα): 200 to 500 nM

Compound: CCC1CCCN(C(=O)N2CCOc3ccc(-c4ccc5nc(C)[nH]c5c4)cc3C2)C1 (stereo not shown) [Compound 72, 4-[(3-ethylpiperidin-1-yl)carbonyl]-7-(2-methyl-1H-benzimidazol-6-yl)-2,3,4,5-tetrahydro-1,4-benzoxazepine]
- IC50 (mTORC1 (mTOR/GbL/Raptor)): 50 to 250 nM
- IC50 (PI3Kα): 200 to 500 nM

Compound: CCNc1nc2ccc(-c3ccc4c(c3)CN(C(=O)N3CCC(=O)CC3c3cccc(F)c3)CCO4)cc2[nH]1 (stereo not shown) [Compound 30, 1-({7-[2-(ethylamino)-1H-benzimidazol-6-yl]-2,3-dihydro-1,4-benzoxazepin-4(5H)-yl}carbonyl)-2-(3-fluorophenyl)piperidin-4-one]
- IC50 (mTORC1 (mTOR/GbL/Raptor)): ≤ 50 nM
- IC50 (PI3Kα): ≤ 75 nM

Compound: Cc1nc2ccc(-c3ccc4c(c3)CN(C(=O)N3CCC(F)(F)CC3)CCO4)cc2[nH]1 [Compound 67, 4-[(4,4-difluoropiperidin-1-yl)carbonyl]-7-(2-methyl-1H-benzimidazol-6-yl)-2,3,4,5-tetrahydro-1,4-benzoxazepine]
- IC50 (mTORC1 (mTOR/GbL/Raptor)): 250 to 700 nM
- IC50 (PI3Kα): 1000 to 3000 nM

Compound: Cc1nc2ccc(-c3ccc4c(c3)CN(C(=O)N3CCCCC3)CCO4)cc2[nH]1 [Compound 86, 7-(2-methyl-1H-benzimidazol-6-yl)-4-(piperidin-1-ylcarbonyl)-2,3,4,5-tetrahydro-1,4-benzoxazepine]
- IC50 (mTORC1 (mTOR/GbL/Raptor)): 250 to 700 nM
- IC50 (PI3Kα): 200 to 500 nM

Compound: Cc1nc2ccc(-c3ccc4c(c3)CN(C(=O)N3CCCCC3c3ccc(C)c(F)c3)CCO4)cc2[nH]1 (stereo not shown) [Compound 123, 4-{[2-(3-fluoro-4-methylphenyl)piperidin-1-yl]carbonyl}-7-(2-methyl-1H-benzimidazol-6-yl)-2,3,4,5-tetrahydro-1,4-benzoxazepine]
- IC50 (mTORC1 (mTOR/GbL/Raptor)): ≤ 50 nM
- IC50 (PI3Kα): 75 to 200 nM

Compound: Nc1nc2ncc(-c3ccc4c(c3)CN(C(=O)N3CCC(CCF)CC3)CCO4)cc2[nH]1 [Compound 44, 6-(4-{[4-(2-fluoroethyl)piperidin-1-yl]carbonyl}-2,3,4,5-tetrahydro-1,4-benzoxazepin-7-yl)-1H-imidazo[4,5-b]pyridin-2-amine]
- IC50 (mTORC1 (mTOR/GbL/Raptor)): ≤ 50 nM
- IC50 (PI3Kα): ≤ 75 nM

Compound: Cc1nc2ccc(-c3ccc4c(c3)CN(C(=O)N(C)[C@H](C)c3ccccc3)CCO4)cc2[nH]1 [Compound 109, N-methyl-7-(2-methyl-1H-benzimidazol-6-yl)-N-[(1R)-1-phenylethyl]-2,3-dihydro-1,4-benzoxazepine-4(5H)-carboxamide]
- IC50 (mTORC1 (mTOR/GbL/Raptor)): ≤ 50 nM
- IC50 (PI3Kα): 75 to 200 nM

Compound: O=C(N1CCC(CF)CC1)N1CCOc2ccc(-c3ccc(-c4ncc[nH]4)cc3)cc2C1 [Compound 58, 4-{[4-(fluoromethyl)piperidin-1-yl]carbonyl}-7-[4-(1H-imidazol-2-yl)phenyl]-2,3,4,5-tetrahydro-1,4-benzoxazepine]
- IC50 (mTORC1 (mTOR/GbL/Raptor)): ≤ 50 nM
- IC50 (PI3Kα): 75 to 200 nM

Compound: Cc1nc2ccc(-c3ccc4c(c3)CN(C(=O)N3CC[C@@H](C#N)C[C@@H]3c3ccc(F)c(F)c3)CCO4)cc2[nH]1 (racemic) [Compound 148, (±)-(2R,4R)-2-(3,4-difluorophenyl)-1-{[7-(2-methyl-1H-benzimidazol-6-yl)-2,3-dihydro-1,4-benzoxazepin-4(5H)-yl]carbonyl}piperidine-4-carbonitrile]
- IC50 (mTORC1 (mTOR/GbL/Raptor)): 50 to 250 nM
- IC50 (PI3Kα): 200 to 500 nM

Compound: COC(=O)Nc1nc2ncc(-c3ccc4c(c3)CN(C(=O)N3CCC(C(C)(F)F)CC3)CCO4)cc2[nH]1 [Compound 34, methyl [6-(4-{[4-(1,1-difluoroethyl)piperidin-1-yl]carbonyl}-2,3,4,5-tetrahydro-1,4-benzoxazepin-7-yl)-1H-imidazo[4,5-b]pyridin-2-yl]carbamate]
- IC50 (mTORC1 (mTOR/GbL/Raptor)): ≤ 50 nM
- IC50 (PI3Kα): ≤ 75 nM

Compound: Cc1nc2ccc(-c3ccc4c(c3)CN(C(=O)N3CCN(c5ncccn5)CC3)CCO4)cc2[nH]1 [Compound 166, 7-(2-methyl-1H-benzimidazol-6-yl)-4-[(4-pyrimidin-2-ylpiperazin-1-yl)carbonyl]-2,3,4,5-tetrahydro-1,4-benzoxazepine]
- IC50 (mTORC1 (mTOR/GbL/Raptor)): 700 to 2600 nM
- IC50 (PI3Kα): 200 to 500 nM

Compound: Cc1nc2ccc(-c3ccc4c(c3)CN(C(=O)N3CCCC3C)CCO4)cc2[nH]1 (stereo not shown) [Compound 99, 7-(2-methyl-1H-benzimidazol-6-yl)-4-[(2-methylpyrrolidin-1-yl)carbonyl]-2,3,4,5-tetrahydro-1,4-benzoxazepine]
- IC50 (mTORC1 (mTOR/GbL/Raptor)): 700 to 2600 nM
- IC50 (PI3Kα): 500 to 1000 nM
